Assay results published in patent publication US20210330611A1, “THERAPY FOR NEUROLOGICAL DISEASES/DISORDERS” (priority 2020, published 2021).
Where “and” joins values, the source holds several entries; their conditions need not be identical. Equal values may be shown once. Read-outs that look alike come from different tables or passages of the source.

What was measured:
primary rat microglia [1] = details: rat
[2] = system: fibrin- and LPS-induced microglia activation; assay: cells; type: cell-based, rat
primary rat microglia [3] = assay: Cell toxicity (dead cells, size <150 μm2) in coated fibrin (cFib) assay; details: for Fibrin % cell toxicity: primary microglia HTS;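 as to Fibrin % cell toxicity: share of dead cells sized under 150 µm2 at 10 µM in fibrin-stimulated microglia HTS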
[4] = system: LPS-induced microglia activation; assay: Image-based assay of LPS-induced microglia activation (HTS and dose response); type: cell-based, rat; details: for inhibition at 10 µM: read-out: LPS % inhibition
[5] = system: fibrin-induced microglia activation; assay: Image-based assay of fibrin-induced microglia activation (HTS and dose response); type: cell-based, rat; details: for inhibition at 10 µM: read-out: Fibrin % inhibition
[6] = quadrant by fibrin and LPS inhibition, HTS at 10 μM
[7] = fibrin assay, dead cells (size <150 μm2)
[8] = Rattus norvegicus, Microglia, primary microglia HTS, LPS stimulation, compounds at 10 μM
[9] = primary microglia HTS, LPS stimulation, compounds at 10 μM, 10 µM
[10] = classification by fibrin and LPS inhibition, HTS at 10 μM
[11] = fibrin assay, dead cells (size <150 μm2), compounds at 10 μM
[12] = quadrant by fibrin and LPS inhibition in HTS of 1907 compounds
[13] = Rattus norvegicus, Microglia, 48 h
[14] = classification by fibrin and LPS inhibition in HTS
[15] = fibrin stimulation, cell size <150 μm2 as marker of toxicity
[16] = Hill slope of fibrin dose response, Table 7
[17] = Hill slope of LPS dose response, Table 7
[18] = Table 7, fib = fibrin, LPS, tox = toxicity
[19] = Rattus norvegicus, Microglia, Table 7, read-out: fib_IC50
[20] = Rattus norvegicus, Microglia, Table 7, read-out: LPS_IC50

Compound: CC(C)NCC(O)COc1cccc2ccccc12 (stereo not shown) [1-(Isopropylamino)-3-(1-Naphthyloxy)-2-Propanol]
- LPS % cell toxicity (primary rat microglia [1]): 0%

Compound: C[C@@H]1[C@H](O)[C@@H](C)/C=C/C=C/C=C/C=C/C=C/C=C/C=C/[C@H](O[C@@H]2O[C@H](C)[C@@H](O)[C@H](N)[C@@H]2O)C[C@@H]2O[C@](O)(C[C@@H](O)C[C@@H](O)[C@H](O)CC[C@@H](O)C[C@@H](O)CC(=O)O[C@H]1C)C[C@H](O)[C@H]2C(=O)O [Amphotericin B]
- Quadrant (FIG. 5b) [2, 6]: Q4
- Fibrin % cell toxicity (primary rat microglia [3]; [7]): 1%

Compound: O=C1CN2Cc3c(ccc(Cl)c3Cl)N=C2N1 [Anagrelide]
- Quadrant (FIG. 5b) [2, 6]: Q4
- Fibrin % cell toxicity (primary rat microglia [3]; [7]): 1%

Compound: O=C1CCc2ccc(OCCCCN3CCN(c4cccc(Cl)c4Cl)CC3)cc2N1 [Aripiprazole]
- Quadrant (FIG. 5b) [2]: Q4
- LPS % cell toxicity (primary rat microglia [1]): 0%

Compound: CN(C)C(=O)Oc1cc(OC(=O)N(C)C)cc(C(O)CNC(C)(C)C)c1 (stereo not shown) [Bambuterol]
- inhibition at 10 µM [4, 8]: 9%
- LPS % inhibition [4, 9]: 13%
- Quadrant (FIG. 5b) [2, 6]: Q4
- Fibrin % cell toxicity (primary rat microglia [3]; [7]): 1%

Compound: CC(C)NCC(O)COc1ccc(CCOCC2CC2)cc1 (stereo not shown) [Betaxolol]
- Quadrant (FIG. 5b) [2]: Q4
- LPS % cell toxicity (primary rat microglia [1]): 0%

Compound: Clc1ccc2c(c1)CCc1cccnc1C2=C1CCNCC1 [Desloratadine]
- Quadrant (FIG. 5b) [2]: Q4
- LPS % cell toxicity (primary rat microglia [1]): 0%

Compound: C[C@H]1O[C@@H](O[C@H]2[C@@H](O)C[C@H](O[C@H]3[C@@H](O)C[C@H](O[C@H]4CC[C@@]5(C)[C@H](CC[C@@H]6[C@@H]5CC[C@]5(C)[C@@H](C7=CC(=O)OC7)CC[C@]65O)C4)O[C@@H]3C)O[C@@H]2C)C[C@H](O)[C@@H]1O [Digitoxin]
- Quadrant (FIG. 5b) [2, 10]: Q4
- Fibrin % cell toxicity (primary rat microglia [3]; [11]): 1%

Compound: CN1C[C@H](C(=O)N[C@]2(C)O[C@@]3(O)[C@@H]4CCCN4C(=O)[C@H](Cc4ccccc4)N3C2=O)C[C@@H]2c3cccc4[nH]cc(c34)C[C@H]21 [Dihydroergotamine]
- Fibrin % inhibition ([5]; primary microglia HTS, fibrin stimulation, compounds at 10 μM, 10 µM): 7% and −3%
- inhibition at 10 µM [4, 8]: 39%
- LPS % inhibition [4, 9]: 22%
- Quadrant (FIG. 5b) [2, 10]: Q4
- Fibrin % cell toxicity (primary rat microglia [3]; [11]): 1% and 0%

Compound: CCN(CC)C(=O)/C(C#N)=C/c1cc(O)c(O)c([N+](=O)[O-])c1 [Entacapone]
- inhibition at 10 µM [4, 8]: 11%
- LPS % inhibition [4, 9]: 17%
- Quadrant (FIG. 5b) [2, 10]: Q4
- Fibrin % cell toxicity (primary rat microglia [3]; [11]): 1%

Compound: COc1ccc2[nH]c([S+]([O-])Cc3ncc(C)c(OC)c3C)nc2c1 (stereo not shown) [Esomeprazole; Omeprazole]
- LPS % inhibition [4, 9]: 24% and 13%
- Quadrant (FIG. 5b) [2, 10]: Q4
- Fibrin % cell toxicity (primary rat microglia [3]; [11]): 0% and 1%

Compound: C[C@]12CC[C@@H]3c4ccc(O)cc4CC[C@H]3[C@@H]1CC[C@@H]2O [Estradiol]
- Quadrant (FIG. 5b) [2, 10]: Q4
- LPS % cell toxicity (primary rat microglia [1]): 0%

Compound: C#C[C@]1(OC(C)=O)CC[C@H]2[C@@H]3CCC4=C[C@@H](OC(C)=O)CC[C@@H]4[C@H]3CC[C@@]21C [Ethynodiol Diacetate]
- Quadrant (FIG. 5b) [2, 10]: Q4
- Fibrin % cell toxicity (primary rat microglia [3]; [11]): 1%

Compound: CCC(=O)c1c(O)cc(O)cc1O [Flopropione]
- inhibition at 10 µM ([5]; Rattus norvegicus, Microglia, primary microglia HTS, fibrin stimulation, activation = cell size >800 μm2): -35%
- inhibition at 10 µM ([4]; Rattus norvegicus, Microglia, 48 h, primary microglia HTS, LPS stimulation, activation = cell size >800 μm2): 10%
- Quadrant (FIG. 5b) [2, 12]: Q4
- Fibrin % cell toxicity (primary rat microglia [3]; fibrin stimulation, toxicity = cell size <150 μm2): 1%

Compound: COc1cc2ncnc(Nc3ccc(F)c(Cl)c3)c2cc1OCCCN1CCOCC1 [Gefitinib]
- Quadrant (FIG. 5b) [2]: Q4
- LPS % cell toxicity (primary rat microglia [1]): 0%

Compound: CC(N)C12CC3CC(CC(C3)C1)C2 (stereo not shown) [Rimantadine]
- inhibition at 10 µM ([5]; Rattus norvegicus, Microglia, primary microglia HTS, fibrin stimulation, cell size >800 μm2 as marker of activation): -19%
- inhibition at 10 µM ([5]; Rattus norvegicus, Microglia, primary microglia HTS, fibrin stimulation, compounds at 10 μM): 106%
- inhibition at 10 µM [4, 13]: 2%
- inhibition at 10 µM [4, 8]: 106%
- Quadrant (FIG. 5b) [2, 14]: Q4
- Quadrant (FIG. 5b) [2, 6]: Q2
- Fibrin % cell toxicity (primary rat microglia [3]; [7]): 93%
- Fibrin % cell toxicity (primary rat microglia [3]; [15]): 0%

Compound: C[C@@H]1CN(c2c(F)c(N)c3c(=O)c(C(=O)O)cn(C4CC4)c3c2F)C[C@H](C)N1 [Sparfloxacin]
- inhibition at 10 µM [4, 13]: 11%
- Quadrant (FIG. 5b) [2, 14]: Q4
- Fibrin % cell toxicity (primary rat microglia [3]; [15]): 0% and 1%

Compound: CN(C)CCCN1c2ccccc2Sc2ccc(C(F)(F)F)cc21 [Triflupromazine]
- LPS % cell toxicity (primary rat microglia [1]): 1%

Compound: COc1cc([C@@H]2c3cc4c(c(O)c3C[C@H]3COC(=O)[C@@H]32)OCO4)cc(OC)c1OC [beta-peltatin]
- fib_HS [5, 16]: −2.10
- fib specificity ([5]; Table 7): 0.5
- IC50 ([5]; Table 7, read-out: fib_IC50): 0.505 µM
- LPS_HS [4, 17]: −1.50
- LPS specificity ([4]; Table 7): 2.0
- IC50 ([4]; Table 7, read-out: LPS_IC50): 0.252 µM
- Activity [2, 18]: fib/LPS

Compound: O=C1C=C2CC3(O)COc4cc(O)ccc4C3=C2C=C1O (stereo not shown) [brazilein]
- IC50 [5, 19]: 1.47 µM
- IC50 [4, 20]: 2.17 µM
- Activity [2, 18]: fib/LPS

Compound: Cn1nnnc1SCC1=C(C(=O)O)N2C(=O)[C@@H](NC(=O)[C@H](O)c3ccccc3)[C@H]2SC1 [cefamandole sodium]
- IC50 [5, 19]: 0.052 µM
- IC50 [4, 20]: 0.002 µM
- Activity [2, 18]: fib/LPS

Compound: C[C@@H]1CCC[C@H](C)N1NC(=O)c1ccc(Cl)c(S(N)(=O)=O)c1 [clopamide]
- IC50 [5, 19]: 0.003 µM
- IC50 [4, 20]: 0.002 µM
- Activity [2, 18]: fib/LPS

Compound: COc1cc2c(c(OC)c1OC)-c1ccc(=O)c(O)cc1[C@@H](NC(C)=O)CC2 [colchiceine]
- IC50 [5, 19]: 0.625 µM
- IC50 [4, 20]: 0.82 µM
- Activity [2, 18]: fib/LPS

Compound: C=C[C@@]1(C)CC(=O)[C@]2(O)[C@@]3(C)[C@@H](O)CCC(C)(C)[C@@H]3[C@H](O)[C@H](OC(C)=O)[C@@]2(C)O1 [colforsin]
- IC50 [5, 19]: 2.08 µM
- IC50 [4, 20]: 1.35 µM
- Activity [2, 18]: fib/LPS

Compound: CO[C@@H]1C[C@@H](C[C@H]2CC[C@H](C)[C@H]([C@@H](C)C(=O)O)O2)O[C@]2(O[C@](C)([C@H]3CC[C@@](C)([C@@H]4O[C@@H]([C@H]5O[C@@](O)(CO)[C@H](C)C[C@@H]5C)C[C@@H]4C)O3)C[C@H]2C)[C@@H]1C [nigericin sodium]
- IC50 [5, 19]: 0.206 µM
- IC50 [4, 20]: 0.065 µM
- Activity [2, 18]: fib/LPS

Compound: CC(C)=CCc1c2c(c3occ(-c4ccc(O)c(O)c4)c(=O)c3c1O)C=CC(C)(C)O2 [pomiferin]
- IC50 [5, 19]: 0.251 µM
- IC50 [4, 20]: 0.123 µM
- IC50 (primary rat microglia [3]; Rattus norvegicus, Microglia, read-out: dead_IC50 (uM), Table 7, fibrin or LPS assay not specified): 3.45 µM

Compound: Adipic Acid, Hexanedioic Acid
- Fibrin % inhibition ([5]; primary microglia HTS, fibrin stimulation, compounds at 10 μM): −24%
- LPS % inhibition ([4]; primary microglia HTS, LPS stimulation, compounds at 10 μM): 8%
- Quadrant (FIG. 5b) [2, 6]: Q4

Compound: Beta-escin
- Fibrin % inhibition ([5]; primary HTS, 10 μM, fibrin-stimulated primary microglia): −11%
- LPS % inhibition ([4]; primary HTS, 10 μM, LPS-stimulated primary microglia): 11%
- Quadrant (FIG. 5b) ([2]; primary HTS, 10 μM): Q4

Compound: FluoromethoIone [reference compound]
- fib_HS [5, 16]: −0.27
- fib specificity ([5]; Table 7): 1.0
- LPS_HS [4, 17]: 0.00
- LPS specificity ([4]; Table 7): 1.0
- Quadrant (FIG. 5b) ([2]; Table 2, screen at 10 μM): Q2
- Activity [2, 18]: fib/LPS

Compound: Hexylene Glycol
- Fibrin % inhibition ([5]; primary microglia HTS, fibrin stimulation, activation = cell size >800 μm2): −8%
- LPS % inhibition ([4]; primary microglia HTS, LPS stimulation, activation = cell size >800 μm2): 12%
- Quadrant (FIG. 5b) [2, 12]: Q4

Compound: Hydrocortisone sodium phosphate [reference compound]
- fib specificity [5]: 1.3
- fib_HS [5]: −0.52
- IC50 ([5]; read-out: fib_IC50): 0.128 µM
- LPS specificity [4]: 0.8
- LPS_HS [4]: −0.69
- IC50 ([4]; read-out: LPS_IC50): 0.161 µM
- Activity [2]: fib/LPS
- Quadrant (FIG. 5b) [2]: Q2

Compound: Medroxyprogesterone [reference compound]
- IC50 ([5]; Table 1, dose response 0.001-20 μM, triplicates, primary rat microglia, 48 h, read-out: Fibrin IC50): > 20 µM
- IC50 ([5]; dose response, fibrin-induced microglia activation, read-out: Fibrin IC50): > 20 µM
- IC50 ([5]; fibrin-induced microglia activation, dose response, read-out: Fibrin IC50 (uM) (Suppl. Table 7)): > 20 µM
- Fibrin % inhibition ([5]; primary microglia HTS, fibrin stimulation, increased cell size (>800 μm^2) as marker of activation): 61%
- IC50 ([4]; LPS-induced microglia activation, dose response, read-out: LPS IC50 (uM) (Suppl. Table 7)): 8 µM
- IC50 ([4]; Table 1, dose response 0.001-20 μM, triplicates, primary rat microglia, 48 h, read-out: LPS IC50): 8 µM
- IC50 ([4]; dose response, LPS-induced microglia activation, read-out: LPS IC50): 8 µM
- LPS % inhibition ([4]; primary microglia HTS, LPS stimulation, increased cell size (>800 μm^2) as marker of activation): 6%
- Quadrant (FIG. 5b) ([2]; HTS of 1907 compounds, quadrant by fibrin and LPS inhibition): Q3
- Quadrant (FIG. 5b) ([2]; Table 1, screen at 10 μM): Q3
- Quadrant (FIG. 5b) [2, 12]: Q3

Compound: Oxolamine Citrate
- Fibrin % inhibition [5]: −1%
- LPS % inhibition [4]: 10%
- Quadrant (FIG. 5b) [2]: Q4

Compound: Spiramycin
- Fibrin % inhibition ([5]; primary microglia HTS, fibrin stimulation, cell size >800 μm2 as marker of activation): 17%
- LPS % inhibition [4]: 14%
- Quadrant (FIG. 5b) [2, 14]: Q4

Compound: neomycin sulfate
- fib specificity [5]: 2.2
- fib_HS [5]: −0.75
- IC50 ([5]; read-out: fib_IC50): 2.3 µM
- LPS specificity [4]: 0.5
- Activity [2]: fib/LPS

Compound: podophyllotoxin acetate
- fib_HS [5, 16]: −1.10
- fib specificity ([5]; Table 7): 0.5
- LPS_HS [4, 17]: −0.87
- LPS specificity ([4]; Table 7): 1.8
- IC50 ([4]; Table 7, read-out: LPS_IC50): 0.012 µM
- Activity [2, 18]: fib/LPS
